Reference: article PMC9709406 (Frontiers in Pharmacology, 2022)
“And” between values parts separate entries of the source, which are not always exact repeats. Equal entries are not always repeated. Where two headings read alike, the source gives them in different places. One block for each molecule: values may come before it.

Assays:
KYSE70TR cells = experiment: MTT assay, taxol-resistant KYSE70TR; type: cell-based, human; settings: Homo sapiens, KYSE 70 TR, MTT, resistance-inducing drug (taxol)
From the text: (§1) The human cancer cells (H1650, H1975, KYSE70, KYSE410 and KYSE450) were purchased from the Type Culture Collection of the Chinese Academy of Sciences (Shanghai, China). The human immortalized normal esophageal epithelial cell line SHEE was donated by Dr. Enmin Li from the Laboratory of Tumor Pathology (Shantou University Medical College, Shantou, Guangdong, China). Drug-resistant cells (H1650TR, H1975OR, KYSE70TR, KYSE410TR and KYSE450TR) were induced by China-US (Henan) Hormel Cancer Institute. The cellswere cultured in RPMI-1640 complete growth medium containing 100 U/mL penicillin-streptomycin and 10% FBS. Based on the above medium formula, 100 nm/L paclitaxel was added in taxol-resistant cells, 100 nm/L gefitinib was added in gefitinib-resistant cells. The cells were incubated at 37 °C in an atmosphere containing 5% of CO2. The compounds were dissolved in DMSO to make a 50 mM stock solution and were diluted to the concentration of working solutions with complete growth medium before administration.
(§2) Cells were seeded in 96-well plates with 2,200–2,500 cells/well in100 μL. One day after seeding, test compounds with the concentration between 0 and 50 μM were added with 0.1% DMSO as control. Five multiple wells for each concentration. […] The absorbance at 490 nm was measured using a microplate reader (Thermo).

KYSE450TR cells = experiment: MTT assay, taxol-resistant KYSE450TR; type: cell-based, human; settings: Homo sapiens, KYSE 450 TR, MTT, resistance-inducing drug (taxol)
From the text: as §1, §2

KYSE410TR cells = experiment: MTT assay, taxol-resistant KYSE410TR; type: cell-based, human; settings: Homo sapiens, KYSE 410 TR, MTT, resistance-inducing drug (taxol)
From the text: as §1, §2

KYSE410 cells = experiment: MTT assay, KYSE410; type: cell-based, human; settings: for IC50: Homo sapiens, 48 h
From the text: as §1
(§3) Cells were seeded in 96-well plates with 2,200–2,500 cells/well in100 μL. One day after seeding, test compounds with the concentration between 0 and 50 μM were added with 0.1% DMSO as control. Five multiple wells for each concentration. After 48 h, MTT was added and incubated in the plate for 1–4 h in the incubator. The absorbance at 490 nm was measured using a microplate reader (Thermo).

H1975 cells = experiment: MTT assay for cell proliferation and cytotoxicity, H1975; type: cell-based, human; settings: Homo sapiens, NCI-H1975, 48 h, MTT, 48 h, H1975, n = 5; read-out: IC50 48 h H1975
From the text: as §1, §2

EGFR = biological target: T1, EGFR (Homo sapiens, UniProt P00533); experiment: EGFR kinase assay (ELISA); type: biochemical; settings: 25°C
T1 construct: purchased Active MOTIF
T1 sequence (P00533 25-1210): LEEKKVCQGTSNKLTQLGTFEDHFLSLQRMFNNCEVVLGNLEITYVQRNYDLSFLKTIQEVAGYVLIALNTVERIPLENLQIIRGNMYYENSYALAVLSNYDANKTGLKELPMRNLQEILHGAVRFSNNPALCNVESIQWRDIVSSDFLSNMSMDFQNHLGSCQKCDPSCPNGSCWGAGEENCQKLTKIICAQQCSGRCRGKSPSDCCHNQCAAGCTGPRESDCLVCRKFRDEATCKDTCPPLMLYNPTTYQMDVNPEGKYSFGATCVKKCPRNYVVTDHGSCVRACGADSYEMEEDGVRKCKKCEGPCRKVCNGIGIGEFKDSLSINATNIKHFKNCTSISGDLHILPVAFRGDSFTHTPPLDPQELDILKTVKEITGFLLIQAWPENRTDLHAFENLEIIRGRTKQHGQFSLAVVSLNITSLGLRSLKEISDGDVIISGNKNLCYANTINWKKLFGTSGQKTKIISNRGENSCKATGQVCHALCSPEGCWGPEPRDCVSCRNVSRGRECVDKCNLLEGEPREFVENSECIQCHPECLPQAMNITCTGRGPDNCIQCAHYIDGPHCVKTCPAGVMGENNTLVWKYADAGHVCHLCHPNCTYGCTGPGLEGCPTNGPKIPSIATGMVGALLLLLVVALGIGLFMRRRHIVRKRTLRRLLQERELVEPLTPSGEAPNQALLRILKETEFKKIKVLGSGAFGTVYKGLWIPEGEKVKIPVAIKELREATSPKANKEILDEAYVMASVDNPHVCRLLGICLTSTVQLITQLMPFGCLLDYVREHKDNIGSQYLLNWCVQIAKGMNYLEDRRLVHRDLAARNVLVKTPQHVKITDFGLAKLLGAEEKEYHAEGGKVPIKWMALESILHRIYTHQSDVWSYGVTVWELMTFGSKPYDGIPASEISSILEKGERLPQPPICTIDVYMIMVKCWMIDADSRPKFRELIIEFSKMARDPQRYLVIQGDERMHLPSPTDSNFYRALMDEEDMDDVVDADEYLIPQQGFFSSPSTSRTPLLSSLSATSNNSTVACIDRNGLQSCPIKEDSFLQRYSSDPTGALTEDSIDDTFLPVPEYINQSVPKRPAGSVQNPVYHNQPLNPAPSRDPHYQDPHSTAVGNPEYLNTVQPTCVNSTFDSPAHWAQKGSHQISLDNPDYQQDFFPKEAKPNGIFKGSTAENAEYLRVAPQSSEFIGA
Method: Kinase inhibitory activities of the compounds were evaluated using the Protein Tyrosine Kinase Assay Kit (SignalChem (British Columbia, Canada)). The kinase enzyme of EGFR was purchased from Active MOTIF. The ELISA experiments were carried out according the instructions of the kit. Active kinases were incubated with indicated compounds in 1 × reaction buffer containing 20 μM substrate at 25°C for 1 h and 2 h, respectively. The absorbance was read with a multimode plate reader (PerkinElmer, United States) at 450 nm.

KYSE450 cells = experiment: MTT assay, KYSE450; type: cell-based, human; settings: for absorbance 490 nm, single well / mean absorbance 490 nm (row G) / mean absorbance 490 nm minus background (row H): KYSE450
From the text: as §1, §3

KYSE70 cells = experiment: MTT assay, KYSE70; type: cell-based, human
From the text: as §1, §3

H1650 cells = experiment: MTT assay for cell proliferation and cytotoxicity, H1650; type: cell-based; settings: Homo sapiens, NCI-H1650, 48 h, H1650, n = 5
From the text: as §1, §3

SHEE cells = experiment: MTT assay, normal esophageal epithelial cell line SHEE; type: cell-based; settings: Homo sapiens, 48 h, n = 5
From the text: as §1, §3

[1] = concentration 12.5 (unit not given)
[2] = concentration 25 (unit not given)
[3] = concentration 50 (unit not given)
[4] = concentration 100 (unit not given)

SMILES: CC(=O)O[C@H]1C(=O)[C@@]2(C)[C@H]([C@H](OC(=O)c3ccccc3)[C@]3(O)C[C@H](OC(=O)[C@H](O)[C@@H](NC(=O)c4ccccc4)c4ccccc4)C(C)=C1C3(C)C)[C@]1(OC(C)=O)CO[C@@H]1C[C@@H]2O [taxol, reference compound]
- IC50 (KYSE70TR cells; 24 h, read-out: 24 h IC50): 4.92 ± 0.274 µM
- IC50 (KYSE70TR cells; 48 h, read-out: 48 h IC50): 1.12 ± 0.0352 µM
- IC50 (KYSE450TR cells; 24 h, read-out: 24 h IC50): 0.266 ± 0.0661 µM
- IC50 (KYSE450TR cells; 48 h, read-out: 48 h IC50): 0.12 ± 0.0301 µM
- IC50 (KYSE410TR cells; 24 h, read-out: 24 h IC50): 6.4 ± 0.43 µM
- IC50 (KYSE410TR cells; 48 h, read-out: 48 h IC50): 1.71 ± 0.05 µM
- IC50 (KYSE410 cells; KYSE 410, MTT, resistance-inducing drug (taxol), read-out: 48 h IC50): 0.0524 ± 0.00345 µM

- IC50 (EGFR; incubation 1 h, read-out: IC50 EGFR 1 h): 5.14 µM
- IC50 (EGFR; incubation 2 h, read-out: IC50 EGFR 2 h): 26 µM
- melting point: 121 to 124 °C
SMILES: COc1ccccc1-n1cc(-c2cccc(Nc3ncnc4cc5c(cc34)OCCOCCOCCO5)c2)nn1 [compound 3d]
- IC50 (H1975 cells): 19.4 ± 1.21 µM
- IC50 (KYSE450 cells; Homo sapiens, KYSE-450, MTT, 48 h, KYSE450, n = 5, read-out: IC50 48 h KYSE450): 13.5 ± 1.21 µM
- absorbance 490 nm, single well (KYSE450 cells; [1]): 0.4487 and 0.4214 and 0.4264 and 0.4518
- mean absorbance 490 nm (row G) (KYSE450 cells; [1]): 0.4371
- mean absorbance 490 nm minus background (row H) (KYSE450 cells; [1]): 0.3824
- absorbance 490 nm, single well (KYSE450 cells; [2]): 0.0614 and 0.062 and 0.0618
- mean absorbance 490 nm (row G) (KYSE450 cells; [2]): 0.06165
- mean absorbance 490 nm minus background (row H) (KYSE450 cells; [2]): 0.00697
- absorbance 490 nm, single well (KYSE450 cells; [3]): 0.0565 and 0.0602 and 0.0592 and 0.0604
- mean absorbance 490 nm (row G) (KYSE450 cells; [3]): 0.05908
- mean absorbance 490 nm minus background (row H) (KYSE450 cells; [3]): 0.004395
- absorbance 490 nm, single well (KYSE450 cells; [4]): 0.0606 and 0.0657 and 0.0613 and 0.0623
- mean absorbance 490 nm (row G) (KYSE450 cells; [4]): 0.06248
- mean absorbance 490 nm minus background (row H) (KYSE450 cells; [4]): 0.007795
- IC50 (KYSE70 cells; Homo sapiens, KYSE-70, MTT, 48 h, KYSE70, n = 5): 7.35 ± 0.7 µM
- blank-corrected absorbance 490 nm relative to control (fraction) (KYSE70 cells; KYSE70, concentration 12.5): 0.1496
- inhibition (1 minus fraction of control) (KYSE70 cells; KYSE70, concentration 12.5): 0.8504
- blank-corrected absorbance 490 nm relative to control (fraction) (KYSE70 cells; KYSE70, concentration 25): 0.05438
- inhibition (1 minus fraction of control) (KYSE70 cells; KYSE70, concentration 25): 0.9456
- blank-corrected absorbance 490 nm relative to control (fraction) (KYSE70 cells; KYSE70, concentration 50): 0.05391
- inhibition (1 minus fraction of control) (KYSE70 cells; KYSE70, concentration 50): 0.9461
- blank-corrected absorbance 490 nm relative to control (fraction) (KYSE70 cells; KYSE70, concentration 100): 0.08017
- inhibition (1 minus fraction of control) (KYSE70 cells; KYSE70, concentration 100): 0.9198
- IC50 (H1650 cells): 10.8 ± 0.89 µM
- IC50 (KYSE410 cells; KYSE-410, MTT, KYSE410, n = 5, read-out: IC50 48 h KYSE410): 8.67 ± 0.71 µM
- blank-corrected absorbance 490 nm relative to control (fraction) (KYSE410 cells; KYSE410, concentration 12.5): 0.2787
- inhibition (1 minus fraction of control) (KYSE410 cells; KYSE410, concentration 12.5): 0.7213
- blank-corrected absorbance 490 nm relative to control (fraction) (KYSE410 cells; KYSE410, concentration 25): -0.00175
- inhibition (1 minus fraction of control) (KYSE410 cells; KYSE410, concentration 25): 1.002
- blank-corrected absorbance 490 nm relative to control (fraction) (KYSE410 cells; KYSE410, concentration 50): 0.004317
- inhibition (1 minus fraction of control) (KYSE410 cells; KYSE410, concentration 50): 0.9957
- blank-corrected absorbance 490 nm relative to control (fraction) (KYSE410 cells; KYSE410, concentration 100): 0.02345
- inhibition (1 minus fraction of control) (KYSE410 cells; KYSE410, concentration 100): 0.9766
- IC50 (SHEE cells): 7.2 ± 0.71 µM
